Activity calls are given as the source filed them. The rule behind the calls is not given here.

The test system of data set [1] is Mus musculus. In words: Antipsychotic activity in NMRI mouse assessed as reduction in methamphetamine-induced locomotor activity at 10 mg/kg administered 30 mins prior to testing measured for 60 mins relative to control. Also on record: dose 10 mg/kg. It is filed as functional, organism-based.
For data set [2], the species on record is Mus musculus. The note with it: in vivo, 0.5 h.
Description: Sedative activity in NMRI mouse assessed as reduction in spontaneous locomotor activity administered 30 mins prior to testing
The subject of data set [3] is Mus musculus. In words: Antipsychotic activity in NMRI mouse assessed as reduction in phencyclidine-induced locomotor activity at 3 mg/kg administered 30 mins prior to testing measured for 60 mins. It is filed as functional, organism-based. Also noted: dose 3 mg/kg.
The subject of a further data set is Rattus norvegicus. In words: Induction of c-Fos protein expression in rat dorsolateral striatum at 30 mg/kg, ip after 1 hr by light microscopy. Also on record: dose 30 mg/kg. It is filed as functional, organism-based.
The target in the next data set is D(1A) dopamine receptor (Rattus norvegicus, UniProt P18901).
Data set [4] addresses Voltage-gated inwardly rectifying potassium channel KCNH2 (Homo sapiens, UniProt Q12809).
Description: Binding affinity to human ERG expressed in HEK293 cells by whole cell patch clamp method
In data set [5] the test system is Mus musculus. In words: Antipsychotic activity in NMRI mouse assessed as reduction in phencyclidine-induced locomotor activity at 10 mg/kg administered 30 mins prior to testing measured for 60 mins. It is filed as functional, organism-based. Also on record: dose 10 mg/kg.
The species entered for data set [6] is Mus musculus. In words: animal or person. The note with it: NMRI.
Description: (§1) Antipsychotic activity in NMRI mouse assessed as reduction in methamphetamine-induced locomotor activity administered 30 mins prior to testing measured for 60 mins
Data set [7] in a line: Intrinsic activity at 5HT1A receptor in Duncan Hartley guinea pig ileum. It is filed as tissue-based. The following applies: Cavia porcellus.
Data set [8] deals with Mus musculus. The note with it: NMRI.
Description: as §1
Data set [9] concerns Mus musculus. In words: Antipsychotic activity in NMRI mouse assessed as reduction in methamphetamine-induced locomotor activity at 3 mg/kg administered 30 mins prior to testing measured for 60 mins relative to control. It is filed as functional, organism-based. Also noted: dose 3 mg/kg.
Data set [10] has as its target T1, 5-hydroxytryptamine receptor 1A (Rattus norvegicus, UniProt P19327).
T1 sequence (P19327 whole entry): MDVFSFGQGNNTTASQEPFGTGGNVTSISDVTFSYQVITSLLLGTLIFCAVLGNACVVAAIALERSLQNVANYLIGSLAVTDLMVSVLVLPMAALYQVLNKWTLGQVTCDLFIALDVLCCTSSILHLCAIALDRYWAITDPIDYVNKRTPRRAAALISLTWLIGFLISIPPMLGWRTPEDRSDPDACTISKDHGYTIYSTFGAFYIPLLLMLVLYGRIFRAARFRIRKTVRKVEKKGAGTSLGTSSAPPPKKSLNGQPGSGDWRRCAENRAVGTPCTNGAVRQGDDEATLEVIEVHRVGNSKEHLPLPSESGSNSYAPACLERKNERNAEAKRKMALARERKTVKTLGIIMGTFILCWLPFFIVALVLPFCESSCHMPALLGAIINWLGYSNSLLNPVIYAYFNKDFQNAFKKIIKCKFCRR
In words: biochemical.
Description: Displacement of [3H]8OH-DPAT from 5HT1A receptor in CRL:CD(SD)BR-COBS rat hippocampus by scintillation spectrometry

Data set [11] deals with T2, Adrenergic receptor alpha-2 (Rattus norvegicus, UniProt P22086+P19328+P22909).
T2 sequence (P22086 whole entry): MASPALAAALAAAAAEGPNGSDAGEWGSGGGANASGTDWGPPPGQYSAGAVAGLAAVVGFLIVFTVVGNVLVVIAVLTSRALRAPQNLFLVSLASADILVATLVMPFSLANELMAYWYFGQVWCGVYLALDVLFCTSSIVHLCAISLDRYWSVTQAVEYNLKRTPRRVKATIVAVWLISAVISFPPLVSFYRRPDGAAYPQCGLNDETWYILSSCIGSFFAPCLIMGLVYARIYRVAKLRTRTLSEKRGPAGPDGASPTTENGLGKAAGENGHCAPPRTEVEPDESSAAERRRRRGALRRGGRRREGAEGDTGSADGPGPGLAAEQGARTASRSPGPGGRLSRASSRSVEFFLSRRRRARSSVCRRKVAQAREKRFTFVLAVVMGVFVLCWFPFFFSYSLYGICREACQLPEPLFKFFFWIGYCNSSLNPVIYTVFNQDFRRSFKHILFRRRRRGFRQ
T2 sequence (P19328 whole entry): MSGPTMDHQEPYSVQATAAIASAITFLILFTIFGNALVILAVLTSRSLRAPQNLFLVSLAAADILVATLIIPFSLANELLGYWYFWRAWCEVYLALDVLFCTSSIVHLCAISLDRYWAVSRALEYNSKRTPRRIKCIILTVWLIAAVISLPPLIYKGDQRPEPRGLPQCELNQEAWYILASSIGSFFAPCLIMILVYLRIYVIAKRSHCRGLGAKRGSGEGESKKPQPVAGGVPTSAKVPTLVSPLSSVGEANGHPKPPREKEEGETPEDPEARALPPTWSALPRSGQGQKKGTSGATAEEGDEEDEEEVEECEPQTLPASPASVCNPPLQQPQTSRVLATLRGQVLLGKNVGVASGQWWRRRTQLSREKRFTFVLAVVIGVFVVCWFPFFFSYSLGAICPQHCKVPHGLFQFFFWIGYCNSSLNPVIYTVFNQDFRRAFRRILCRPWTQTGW
T2 sequence (P22909 whole entry): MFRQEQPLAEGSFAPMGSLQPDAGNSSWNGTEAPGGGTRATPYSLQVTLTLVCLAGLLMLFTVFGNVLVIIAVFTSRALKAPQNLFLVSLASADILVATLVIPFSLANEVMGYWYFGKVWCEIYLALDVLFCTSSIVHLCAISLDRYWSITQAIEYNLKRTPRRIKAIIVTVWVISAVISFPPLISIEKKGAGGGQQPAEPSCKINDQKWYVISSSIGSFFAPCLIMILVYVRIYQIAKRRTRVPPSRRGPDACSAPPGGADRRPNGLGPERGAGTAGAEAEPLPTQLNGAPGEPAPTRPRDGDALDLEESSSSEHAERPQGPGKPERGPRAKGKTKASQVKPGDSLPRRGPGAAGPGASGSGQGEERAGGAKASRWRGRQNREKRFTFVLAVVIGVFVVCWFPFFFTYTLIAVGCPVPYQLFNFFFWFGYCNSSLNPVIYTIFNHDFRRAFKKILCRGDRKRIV
In words: Displacement of [3H]clonidine from adrenergic alpha2 receptor in rat cerebral cortex by filtration technique. It is filed as tissue-based. On the technique in general: Displacement assays read how much labelled ligand stays bound in the presence of the test substance.

In data set [12] the test system is Mus musculus. The following applies: NMRI. This is another data set of the same source.
Description: Antipsychotic activity in NMRI mouse assessed as reduction in phencyclidine-induced locomotor activity administered 30 mins prior to testing measured for 60 mins
The nature of data set [13]: Displacement of [3H]idazoxan from imidazole I2 receptor in rabbit kidney by filtration technique. Also noted: species or system Oryctolagus cuniculus.
Data set [14] concerns Mus musculus. In words: Sedative activity in NMRI mouse assessed as reduction in spontaneous locomotor activity at 10 mg/kg administered 30 mins prior to testing relative to control. The following applies: in vivo, 0.5 h. It is filed as organism-based. Also noted: dose 10 mg/kg.

Sequence of D(1A) dopamine receptor (P18901 whole entry): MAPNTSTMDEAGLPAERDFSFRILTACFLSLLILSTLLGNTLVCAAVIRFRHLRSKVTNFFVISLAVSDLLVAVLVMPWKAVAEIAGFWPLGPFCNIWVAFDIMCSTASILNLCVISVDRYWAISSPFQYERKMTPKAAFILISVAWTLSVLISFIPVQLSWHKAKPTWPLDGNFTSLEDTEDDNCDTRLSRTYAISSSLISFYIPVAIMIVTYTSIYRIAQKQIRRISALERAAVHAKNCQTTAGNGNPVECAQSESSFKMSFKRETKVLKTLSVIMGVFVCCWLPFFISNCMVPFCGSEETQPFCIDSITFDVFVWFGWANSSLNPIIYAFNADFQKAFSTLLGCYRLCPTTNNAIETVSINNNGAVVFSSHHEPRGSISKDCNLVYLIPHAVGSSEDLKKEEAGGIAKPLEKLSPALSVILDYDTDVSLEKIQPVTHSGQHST
Sequence of Voltage-gated inwardly rectifying potassium channel KCNH2 (Q12809 whole entry): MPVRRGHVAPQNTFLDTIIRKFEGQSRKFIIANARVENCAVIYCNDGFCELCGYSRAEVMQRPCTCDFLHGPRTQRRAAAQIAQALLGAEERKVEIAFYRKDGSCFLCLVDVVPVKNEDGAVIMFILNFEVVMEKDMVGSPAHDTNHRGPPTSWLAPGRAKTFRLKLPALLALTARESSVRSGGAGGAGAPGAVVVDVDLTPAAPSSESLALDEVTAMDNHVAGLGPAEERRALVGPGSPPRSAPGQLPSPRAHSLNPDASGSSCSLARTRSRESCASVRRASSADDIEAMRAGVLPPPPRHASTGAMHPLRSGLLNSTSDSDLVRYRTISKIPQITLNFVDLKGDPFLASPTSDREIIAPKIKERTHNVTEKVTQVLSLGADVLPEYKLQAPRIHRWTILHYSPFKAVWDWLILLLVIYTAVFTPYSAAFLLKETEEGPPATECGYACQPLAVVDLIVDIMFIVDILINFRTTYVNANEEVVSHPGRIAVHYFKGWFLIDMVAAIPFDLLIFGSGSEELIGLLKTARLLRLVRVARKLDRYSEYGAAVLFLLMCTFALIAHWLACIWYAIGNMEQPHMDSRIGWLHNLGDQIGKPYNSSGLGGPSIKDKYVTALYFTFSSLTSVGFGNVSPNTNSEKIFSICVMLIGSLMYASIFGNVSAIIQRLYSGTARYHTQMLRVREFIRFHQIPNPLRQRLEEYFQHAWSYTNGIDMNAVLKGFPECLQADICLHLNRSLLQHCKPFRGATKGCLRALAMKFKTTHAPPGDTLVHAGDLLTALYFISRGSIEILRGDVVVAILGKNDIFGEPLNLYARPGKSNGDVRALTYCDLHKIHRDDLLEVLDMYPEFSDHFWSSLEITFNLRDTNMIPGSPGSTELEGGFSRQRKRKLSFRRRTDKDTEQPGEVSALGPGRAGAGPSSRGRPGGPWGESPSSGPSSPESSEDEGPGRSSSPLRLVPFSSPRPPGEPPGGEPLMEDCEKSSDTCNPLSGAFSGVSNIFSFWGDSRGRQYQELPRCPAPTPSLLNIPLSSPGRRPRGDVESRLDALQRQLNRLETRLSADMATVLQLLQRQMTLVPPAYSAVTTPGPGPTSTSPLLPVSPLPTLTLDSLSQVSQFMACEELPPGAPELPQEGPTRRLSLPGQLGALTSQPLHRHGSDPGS
Description for D(1A) dopamine receptor: Displacement of [3H]SCH23390 from dopamine D1 receptor in CRL:CD(SD)BR-COBS rat striatum by scintillation spectrometry

Consider `Cc1cccc(N2CCN(CCCCNC(=O)c3cc4ccccc4o3)CC2)c1`, for which the result with Mus musculus [1], with Mus musculus [3], with Rattus norvegicus, in the data set on Mus musculus [5] and with Mus musculus [9] was Active. Also, the ED50 in the data set listed under Mus musculus [2] came out at 5.5 mg/kg; in the data set listed under Mus musculus [6] it was 2.1 mg/kg. Moreover, the Ki at D(1A) dopamine receptor was determined as 3290 nM; in [4] it was 930 nM; in data set [10] it was 11.9 nM; in data set [11] it was 43 nM; in data set [13] it was 138 nM. In addition, the IC50 in data set [7] amounted to 180 nM. Also, the Activity result with Mus musculus [8] is “Dose-dependent effect”; in the data set with Mus musculus [12] it was “Dose-dependent effect”; in the data set with Mus musculus [14] it was “Toxic”.

One may read the ED50 as the midpoint of the dose-response relation. Read a high ED50 as a need for a large dose. For orientation: Ki means the dissociation constant of the complex between target and ligand, obtained from inhibition or displacement. A low value points to higher affinity. Usually IC50 stands for the concentration at which inhibition is half-maximal. A low value points to higher potency.

The record behind these values is ChEMBL document CHEMBL1139353, “Discovery of a new class of potential multifunctional atypical antipsychotic agents targeting dopamine D3 and serotonin 5-HT1A and 5-HT2A receptors: design, synthesis, and effects on behavior” (J Med Chem, 2009).
